Source: a melting point compilation (Tetko et al.; mined from patent text by program, amines drawn as free bases though some values may be those of a salt)

Point of comparison: COC(=O)CSCCn1cc(C)c(=O)[nH]c1=O, melting point 75 °C. Against it:
- CCS(=O)(=O)n1cc(C(=O)c2ccn3c2CSC3c2cccnc2)c2ccc(-c3ccc(F)cc3)cc21 (stereo not drawn) — higher, 132 °C
- CC(C(=O)O)c1ccc(-c2ccccc2F)c(F)c1 (stereo not drawn) — higher, 120 to 123 °C
- CC(Oc1ncn(-c2ccc(Br)cc2)n1)C(=O)N1CCCC1 (stereo not drawn) — higher, 144 to 145 °C
- CC(C)CCCCCCCCCCCCc1ccc(O)cc1O — lower, 70 °C
- COC(CN1CCN(c2ccccc2)CC1)c1ccc(C)nc1 (stereo not drawn) — higher, 93 °C
- CC(=O)OC1(c2nc3ccccc3s2)C=CC(=O)C=C1 — higher, 101 °C
- Cc1oc(-c2ccccc2)nc1CCCc1ccc(CC(C(=O)O)c2cccnc2)cc1 (stereo not drawn) — higher, 112 to 114 °C
- COC(=O)c1cccc2c1c1c(OC)c3c(cc1n2Cc1ccccc1)CCCC3 — higher, 144 to 146 °C
- CN(C)Cc1ccc(CNC(=O)C2Cc3ccccc3N2S(=O)(=O)c2ccc(-c3cccc(C(F)(F)F)c3)cc2)cc1 (stereo not drawn) — lower, 70 °C
- N#Cc1ccc(/C=C/C=C/C=O)cc1 — higher, 147 to 150 °C
- Cc1cc(OC(C)C)ccc1N1CCCn2c1nc1c(Cl)ccc(C(OC(F)F)C(F)(F)F)c12 (stereo not drawn) — higher, 198 to 204 °C
- O=C1NC(=O)C2=C1c1c([nH]c3ccccc13)Cc1[nH]c3ccccc3c12 — higher, > 350 °C
- CCCn1c(=O)c2c(N)n(C(=O)OC)nc2c2ccccc21 — higher, 180 to 184 °C
- O=C(Oc1cc([N+](=O)[O-])cc([N+](=O)[O-])c1O)c1ccccc1 — higher, 150 to 152 °C
- N[C@H]1CC[C@H](CN2CCC(=C3c4ccccc4Sc4ccc(Cl)cc43)CC2)CC1 — higher, 128 to 135 °C
- CC1(C)OC(c2cccc(S(C)(=O)=O)c2)=C(c2ccccc2)C1=O — higher, 190 to 191 °C
- CCC(Cc1ccc(OC)c(S(N)(=O)=O)c1)NC(=O)C(F)(F)F (stereo not drawn) — higher, 189 to 192 °C
- O=C(Nc1ccc(C(=O)N2C[C@@H]3CCCN3C(=O)c3ccccc32)cc1)c1ccccc1-c1ccccc1 — higher, 233 to 235 °C
- Oc1cc(O)cc(OCc2ccccc2)c1 — higher, 85 to 86 °C
- CC1=C(N)C(C)C2CC(C)(CN3CCN(c4ccc(-n5ccnc5)cc4)CC3)OC2=C1C (stereo not drawn) — higher, 165 to 167 °C
- COP(=S)(OC)Oc1ncn(-c2ccccn2)n1 — higher, 88 to 91 °C
- Cc1cc(C(N)=O)ccc1N=C1SC[C@H](CC(C)C)N1CC(C)C — higher, 130 to 131 °C
- CSc1cc2ncnc(Nc3cccc(C)c3)c2cc1[N+](=O)[O-] — higher, 230 to 231 °C
- CC(C)(C)OC(=O)/C=C1\CCc2cccc3c2N1CC3 — higher, 105 to 107 °C
- CCCN1CCN(c2ncc3c(=O)c(C(=O)O)cn(CC)c3n2)CC1 — higher, 149 °C
- COc1ccc(C(=O)C(CC(=O)N[C@@H](Cc2ccccc2)C(=O)O)SC(C)=O)cc1F (stereo partly drawn) — higher, 140 to 146 °C
- CC1(O)CC(=O)OC(c2ccc(-c3ccccc3)cc2)C1Br (stereo not drawn) — higher, 173 to 176 °C
- COc1cccn2nc(S(=O)(=O)Nc3c(F)cccc3F)nc12 — higher, 254 to 255 °C
- O=C(Nc1cc(Cl)ccc1Oc1ccc(Cl)cc1)c1ccncc1 — higher, 214 to 215 °C
- c1cnc(N2CCN(Cc3ccc(CN4CCN(c5ncccn5)CC4)cc3)CC2)nc1 — higher, 193 to 195 °C
- CCCC[C@H](NC(=O)[C@H](CC(C)C)NC(=O)c1ccc(F)c(C(F)(F)F)c1)C(=O)CSCc1ccco1 — higher, 112 to 114 °C
- CCOC(=O)CC1(S(N)(=O)=O)c2cc(F)ccc2-c2ccc(F)cc21 — higher, 215 to 217 °C
- CCc1noc(-c2cn(-c3ccccc3OCc3ccccc3)cn2)n1 — higher, 106 °C
- O=CC(=O)c1ccc(OCCc2ccccc2)cc1 — lower, 44 to 59 °C
- COC(=O)c1ccccc1S(=O)(=O)NC(=O)Nc1nnc(SC)n(C)c1=O — higher, 186 to 187 °C
- COc1ccc(Cl)cc1N1CCN(CCNc2nccc(C(=O)N3CCC(Nc4nc(=O)cc[nH]4)CC3)n2)CC1 — higher, 114 to 117 °C
- CCOC(=O)CC(NC(=O)c1ccc(Cl)cc1)C(=O)c1ccsc1 (stereo not drawn) — higher, 106 to 108 °C
- O=C(NC(Cc1ccc(OCc2ccc(F)cc2)cc1)C(=O)O)c1cc2cc(-c3ccc(Cl)cc3)ccc2s1 (stereo not drawn) — higher, 189 to 190 °C
- Oc1cnccc1N=CN1CCCCCC1 — higher, 117 to 118 °C
- CC1=NS(=O)(=O)N(C)C(Cl)=N1 — higher, 86 to 90 °C
- CON=C(C)c1cc(C#N)c(=O)[nH]c1C — higher, 275 to 285 °C
- CC1(C)CCCC[C@H]1[C@H](O)c1ccc(F)cc1 — higher, 105 to 108 °C
- COc1cc(C(=O)c2ccc(CC(=O)O)s2)cc(OC)c1OC — higher, 124 °C
- CC1(C)OC(=S)Nc2ccc(-c3cc(C#N)ccc3F)cc21 — higher, 250 to 251 °C
- NC(=O)COCCN1CCN2c3ccccc3Cc3ccccc3C2C1 (stereo not drawn) — lower, 66 to 68 °C
- C=CCNc1c(CO)cnc2cn(C(C)(C)OC)nc12 — higher, 152 to 154 °C
- O=S(=O)(c1ccccc1)C(F)(F)C(F)Cl (stereo not drawn) — lower, 38 to 39 °C
- Cc1ccc(S(=O)(=O)N2[C@H](CCCc3nnn(C)n3)CC[C@@H]2c2ccc(F)cc2)cc1 (racemic) — higher, 107 °C
- CCCCCSc1cc(C(=O)O)cc(S(N)(=O)=O)c1Oc1ccccc1 — higher, 180 to 182 °C
- O=C1C(Cc2ncccc2Br)c2ccccc2C12COc1cc3c(cc12)OCCO3 (stereo not drawn) — higher, 217 to 218 °C
- CC(=O)NC[C@H]1CN(c2ccc(C3=CCN(C=O)CC3)c(F)c2)C(=O)O1 — higher, 148 to 151 °C
- CCOC(=O)C(C)(C)S(=O)c1ccc2c(-c3ccc(Cl)cc3)noc2c1 (stereo not drawn) — higher, 89 °C
- CNc1c(F)c(F)c(F)c2c1c(=O)c(C(=O)O)cn2C1CC1 — higher, 205 to 207 °C
- Cc1c(C(=O)N2CCC[C@H](C)C2)[nH]c2ccccc12 — higher, 198 to 200 °C
- CCCn1nc2c(N)nc3ccccc3c2c1CCCCN1C(=O)c2ccccc2C1=O — higher, 204 to 206 °C
- CCc1c(-c2ccc(O)cc2)c2c(COCCCCCN3CCCCC3)cc3c(O)ccc1n32 — higher, 120 to 121 °C
- N=C(Nc1ccccc1-c1ccccc1)C1CCCCC1 — higher, 148 to 150 °C
- CC(=O)NC1C(O[Si](C)(C)C(C)(C)C)C=C(C(=O)O)OC1C(OCC(=O)O)C1COC(C)(C)O1 (stereo not drawn) — higher, 130 °C
- CC(C)N(C(=O)CN1C(=O)C(C)(CC(=O)Nc2ccccc2)C(=O)N(c2ccc(Cl)cc2)c2ccccc21)c1ccccc1 (stereo not drawn) — higher, 170 to 176 °C
- CCOC(=O)C1=C(C)NC(C#N)=C(C(=O)OCC)C1c1cccc([N+](=O)[O-])c1 (stereo not drawn) — higher, 174 to 177 °C
- CCOC(=O)CCCC(=O)c1ccc(O)c(CCC(=O)OCC)c1 — lower, 68 to 69 °C
- Cn1c(CNC(=O)Nc2ccc3c(c2)CCC3NC(=O)OC(C)(C)C)c(-c2ccccc2)c2cc(Cl)ccc2c1=O (stereo not drawn) — higher, 225 to 227 °C
- O=c1c2c(Cc3cccc(OC(F)(F)F)c3)n[nH]c2c2cccnc2n1-c1cccc(C(F)(F)F)c1 — higher, 129 to 132 °C
- CC1CC(=O)N[C@@H]2CCc3cc(Cl)ccc3[C@@H]12 (stereo partly drawn) — lower, 71.5 to 73 °C
- CC1=NCN(c2ccc(Br)s2)O1 — lower, 48 to 49 °C
- COc1cc(Cl)ccc1CC(=O)O — higher, 100 °C
- CCNC(=O)C1OC(n2cnc3c(NCC(c4ccccc4)c4ccccc4)nc(NC4CCCC4)nc32)C(O)C1O (stereo not drawn) — higher, 122 to 128 °C
- [N-]=[N+]=Nc1cc(Cl)nc(-c2ccc([N+](=O)[O-])o2)n1 — higher, 114 to 116 °C
- CC(C)C1(C)N=C(c2ccc(C(C)(C)O)cn2)NC1=O (stereo not drawn) — higher, 166 to 168 °C
- CC(C)CCOC(=O)c1cccc(-c2cn(C)cc(-n3cccn3)c2=O)c1 — higher, 115 to 118 °C
- Cc1nc(-c2ccc(SC(C)C)c([N+](=O)[O-])c2)sc1C(=O)O — higher, 233 to 235 °C
- COc1cc(OC)nc(Oc2ccnc3c(Cl)cccc23)n1 — higher, 115 to 118 °C
- Cc1cccc(-n2nc(C)cc2-c2ccnc(N)c2)c1 — higher, 124 to 125 °C
- O=Cc1ccc(-c2cc(C(F)(F)F)n(Cc3ccccc3)n2)o1 — higher, 76.5 to 77.5 °C
- CC(C)Oc1ccc([N+](=O)[O-])cc1C(F)(F)F — lower, 34 to 36 °C
- COc1cc2c(cc1OC)C(=CN1CCN(C)CC1)C(=O)N2 — higher, 154 to 156 °C
- CC(=O)N(C)c1ccc(N(CCCCN(c2ccc(N(C)C(C)=O)cc2)S(=O)(=O)c2ccccc2)S(=O)(=O)c2ccccc2)cc1 — higher, 235 °C
- CCc1[nH]n(C2CCCC2)c2nc(Cc3cccn3C)nc(=O)c1-2 — higher, 214 to 216 °C
- CN1CCC(c2cc3ccc(Cl)cc3c(=O)[nH]2)CC1 — higher, 253 to 255 °C
- CC1(C)CC=Nc2nc(N)c3ccccc3c21 — higher, 253 to 260 °C
- COc1ccc(C(=O)CCCCc2ccccc2)cc1OC — lower, 56 to 58 °C
- Cc1cc2c(Cl)cc(F)c(-n3c(=O)cc(C(F)(F)F)n(C)c3=O)c2o1 — higher, 196 to 197 °C
- CC(C)CN1C(=O)C2CC(c3ccc(N)cc3)(C2)C1=O — higher, 158 to 160 °C
- CN1C(=O)C(C(=O)Nc2ccc(F)cc2)S(=O)(=O)c2cc(Cl)ccc21 (stereo not drawn) — higher, 205 °C
- COc1ccc(C(Sc2ccc3ccccc3c2N)C(O)C(=O)O)cc1 (stereo not drawn) — higher, 160 to 161 °C
- O=C(CCc1ccccc1)N[C@H](Cc1ccc(C(F)(F)F)cc1)[C@@H](O)c1ccoc1 (racemic) — higher, 134 to 135 °C
- Cc1cc(C)c([N+](=O)[O-])cc1-n1c(C)cc(C)c(C#N)c1=O — higher, 262 to 263 °C
- Cc1ncc(OC(=O)C2(C3CCCCC3)CCCCC2)cn1 — lower, 52 to 55 °C
- COC(=O)Cc1c(Cl)cc(C(=O)c2ccc(C)cc2)n1C — higher, 144 to 146 °C
- CCOc1ccc(-n2c(C(C)N(Cc3cccnc3)C(=O)OC(C)(C)C)nc3ccccc3c2=O)cc1 (stereo not drawn) — lower, 67.5 °C
- O=C(c1ccccc1)N1CCCC1c1cccc(O)c1 (stereo not drawn) — higher, 167 to 169 °C
- CC(C)(C)OC(=O)Nc1cccc(C(=O)OCOC(=O)C(C)(C)C)c1 — higher, 88 to 89 °C
- C1CC1Nc1nc(NC2CC2)nc(NC2CC2)n1 — not separable, 75 to 77 °C
- Cn1c(=O)c(-c2ccc(Cl)cc2Cl)cc2c3cc(-c4csc(CO)n4)ccc3n(C)c21 — higher, 261 to 262 °C
- Cc1cc(-n2cncn2)c2cccc(OCc3c(Cl)ccc(S(=O)(=O)N4CCC[C@H]4C(=O)NCCCN(C)C)c3Cl)c2n1 — higher, 105 °C
- CC(C)n1nc(-c2cc(-n3cccc3)cnc2-c2ccccc2)ccc1=O — higher, 189 to 190 °C
- COC(=O)COc1cccc2c1CCC(CC(=O)CBr)C2 (stereo not drawn) — higher, 77 to 78 °C
